Experiments:
Test in all cases: Ba/F3 drug screening, Cell Titer Glo, IC50 Mut/WT
Assay type in all cases: cell-based
EGFR L833F = molecular target: T1, EGFR L833F (Homo sapiens, UniProt P00533, L833F); details: Classical-Like, 72 hours
T1 construct: expressed in transfected cells; host or cells: Ba/F3 cells, retroviral pBabe-Puro vector

EGFR L858R S784F = molecular target: T2, EGFR L858R S784F (Homo sapiens, UniProt P00533, L858R/S784F); details: Classical-Like, 72 hours
T2 construct: expressed in transfected cells; host or cells: Ba/F3 cells, retroviral pBabe-Puro vector (vector made by GeneScript from EGFR L858R)
Experimental: (§1) Data represent the ratio of the IC50 value for a given TKI for cells with a classical-like EGFR mutation to the IC50 value for cells with wildtype EGFR.
(§2) Ba/F3 cell generation, drug screening, and IC50 approximations. Ba/F3 cells were obtained as a gift from Dr. Gordon Mills (MD Anderson Cancer Center), and maintained in RPMI (Sigma) containing 10% FBS, 1% penicillin/streptomycin, and 10 ng/ml recombinant mIL-3 (R&D Biosystems). To establish stable Ba/F3 cell lines, Ba/F3 cells were transduced with retroviruses containing mutant EGFR plasmids for 12-24 hours.
(§3) After 48-72 hours of transduction, 2 μg/ml puromycin (Invitrogen) was added to Ba/F3 cell lines in complete RPMI. To select for EGFR positive cell lines, cells were stained with PE-EGFR (Biolegend) and sorted by FACS. After sorting, EGFR positive cells were maintained in RPMI containing 10% FBS, 1% penicillin/streptomycin, and 1 ng/ml EGF to support cell viability. […] Shortly, cells were plated in 384-well plates (Greiner Bio-One) at 2000-3000 cells per well in technical triplicate. Seven different concentrations of TKIs or DMSO vehicle were added to reach a final volume of 40 μL per well. After 72 hours, 11 μL of Cell Titer Glo (Promega) was added to each well. Plates were incubated for a minimum of 10 minutes, and bioluminescence was determined using a FLUOstar OPTIMA plate reader (BMG LABTECH). Raw bioluminescence values were normalized to DMSO control treated cells, and values were plotted in GraphPad Prism. […] Drug screens were performed in technical triplicate on each plate and either duplicate or triplicate biological replicates.

EGFR S720P = molecular target: T3, EGFR S720P (Homo sapiens, UniProt P00533, S720P); details: Classical-Like, 72 hours
T3 construct: expressed in transfected cells; host or cells: Ba/F3 cells, retroviral pBabe-Puro vector (vector made by GeneScript from EGFR WT)
Experimental: as §1, §2, §3

EGFR A763insFQEA = molecular target: T4, EGFR A763insFQEA (Homo sapiens, UniProt P00533, INS763FQEA); details: Classical-Like, 72 hours
T4 construct: expressed in transfected cells; host or cells: Ba/F3 cells, retroviral pBabe-Puro vector

EGFR D761N = molecular target: T5, EGFR D761N (Homo sapiens, UniProt P00533, D761N); details: Classical-Like, 72 hours
T5 construct: expressed in transfected cells; host or cells: Ba/F3 cells, retroviral pBabe-Puro vector

EGFR S768dupSVD = molecular target: T6, EGFR S768dupSVD (Homo sapiens, UniProt P00533, DUP768-770); details: Ex20, 72 hours
T6 construct: expressed in transfected cells; host or cells: Ba/F3 cells, retroviral pBabe-Puro vector

EGFR H773insNPH = molecular target: T7, EGFR H773insNPH (Homo sapiens, UniProt P00533, INS773NPH); details: Ex20, 72 hours
T7 construct: expressed in transfected cells; host or cells: Ba/F3 cells, retroviral pBabe-Puro vector

EGFR N771dupN = molecular target: T8, EGFR N771dupN (Homo sapiens, UniProt P00533, DUP771-771); details: Ex20, 72 hours
T8 construct: expressed in transfected cells; host or cells: Ba/F3 cells, retroviral pBabe-Puro vector
Experimental: (§4) Data represent the ratio of the IC50 value for a given TKI for cells with an ex20ins EGFR mutation to the IC50 value for cells with wildtype EGFR.
as §2
(§5) After 48-72 hours of transduction, 2 μg/ml puromycin (Invitrogen) was added to Ba/F3 cell lines in complete RPMI. To select for EGFR positive cell lines, cells were stained with PE-EGFR (Biolegend) and sorted by FACS. After sorting, EGFR positive cells were maintained in RPMI containing 10% FBS, 1% penicillin/streptomycin, and 1 ng/ml EGF to support cell viability. Drug screening was performed as previously described^41,42. Shortly, cells were plated in 384-well plates (Greiner Bio-One) at 2000-3000 cells per well in technical triplicate. Seven different concentrations of TKIs or DMSO vehicle were added to reach a final volume of 40 μL per well. After 72 hours, 11 μL of Cell Titer Glo (Promega) was added to each well. Plates were incubated for a minimum of 10 minutes, and bioluminescence was determined using a FLUOstar OPTIMA plate reader (BMG LABTECH). Raw bioluminescence values were normalized to DMSO control treated cells, and values were plotted in GraphPad Prism. […] Drug screens were performed in technical triplicate on each plate and either duplicate or triplicate biological replicates. […] Statistical differences between groups were determined by ANOVA as described in the figure legends.

EGFR N771dupN G724S = molecular target: T9, EGFR N771dupN G724S (Homo sapiens, UniProt P00533, DUP771-771/G724S); details: Ex20, 72 hours
T9 construct: expressed in transfected cells; host or cells: Ba/F3 cells, retroviral pBabe-Puro vector (vector made by GeneScript from EGFR G724S, c.2313_2314insAAC)
Experimental: as §4, §2, §5

[1] = molecular target: T10, EGFR L747_K754del insATSPE (Homo sapiens, UniProt P00533, DEL747-749/K754E); details: T790M-like-3S, 72 hours
T10 construct: expressed in transfected cells; host or cells: Ba/F3 cells, retroviral pBabe-Puro vector

EGFR T790M = molecular target: T11, EGFR T790M (Homo sapiens, UniProt P00533, T790M); details: T790M-like-3S, 72 hours
T11 construct: expressed in transfected cells; host or cells: Ba/F3

EGFR Ex19del T790M = molecular target: T12, EGFR Ex19del T790M (Homo sapiens, UniProt P00533, DEL746-750/T790M); details: T790M-like-3S, 72 hours
T12 construct: expressed in transfected cells; host or cells: Ba/F3
Experimental: (§6) Data represent the ratio of the IC50 value for a given TKI for cells with a T790M-like-3S EGFR mutation to the IC50 value for cells with wildtype EGFR.
as §2
(§7) After 48-72 hours of transduction, 2 μg/ml puromycin (Invitrogen) was added to Ba/F3 cell lines in complete RPMI. To select for EGFR positive cell lines, cells were stained with PE-EGFR (Biolegend) and sorted by FACS. After sorting, EGFR positive cells were maintained in RPMI containing 10% FBS, 1% penicillin/streptomycin, and 1 ng/ml EGF to support cell viability. Drug screening was performed as previously described^41,42. Shortly, cells were plated in 384-well plates (Greiner Bio-One) at 2000-3000 cells per well in technical triplicate. Seven different concentrations of TKIs or DMSO vehicle were added to reach a final volume of 40 μL per well. After 72 hours, 11 μL of Cell Titer Glo (Promega) was added to each well. Plates were incubated for a minimum of 10 minutes, and bioluminescence was determined using a FLUOstar OPTIMA plate reader (BMG LABTECH). Raw bioluminescence values were normalized to DMSO control treated cells, and values were plotted in GraphPad Prism. […] Drug screens were performed in technical triplicate on each plate and either duplicate or triplicate biological replicates.

EGFR G719A T790M = molecular target: T13, EGFR G719A T790M (Homo sapiens, UniProt P00533, G719A/T790M); details: T790M-like-3S, 72 hours
T13 construct: expressed in transfected cells; host or cells: Ba/F3

EGFR G719S T790M = molecular target: T14, EGFR G719S T790M (Homo sapiens, UniProt P00533, G719S/T790M); details: T790M-like-3S, 72 hours
T14 construct: expressed in transfected cells; host or cells: Ba/F3
Experimental: as §6, §2, §7

EGFR Ex19del/T790M/G724S = molecular target: T15, EGFR Ex19del/T790M/G724S (Homo sapiens, UniProt P00533, DEL746-750/G724S/T790M); details: T790M-like-3S, 72 hours
T15 construct: expressed in transfected cells; host or cells: Ba/F3

EGFR L858R T790M L792H = molecular target: T16, EGFR L858R T790M L792H (Homo sapiens, UniProt P00533, L792H/L858R/T790M); details: T790M-like-3S, 72 hours
T16 construct: expressed in transfected cells; host or cells: Ba/F3

EGFR Ex19del T790M L718V = molecular target: T17, EGFR Ex19del T790M L718V (Homo sapiens, UniProt P00533, DEL746-750/L718V/T790M); details: T790M-like-3S, 72 hours
T17 construct: expressed in transfected cells; host or cells: Ba/F3

EGFR L858R/T790M/L718Q = molecular target: T18, EGFR L858R/T790M/L718Q (Homo sapiens, UniProt P00533, L718Q/L858R/T790M); details: T790M-like-3R, 72 hours
T18 construct: expressed in transfected cells; host or cells: Ba/F3

EGFR Ex19del/T790M/L792H = molecular target: T19, EGFR Ex19del/T790M/L792H (Homo sapiens, UniProt P00533, DEL746-750/L792H/T790M); details: T790M-like-3R, 72 hours
T19 construct: expressed in transfected cells; host or cells: Ba/F3
Experimental: (§8) Data represent the ratio of the IC50 value for a given TKI for cells with a T790M-like-3R EGFR mutation to the IC50 value for cells with wildtype EGFR.
as §2
(§9) After 48-72 hours of transduction, 2 μg/ml puromycin (Invitrogen) was added to Ba/F3 cell lines in complete RPMI. To select for EGFR positive cell lines, cells were stained with PE-EGFR (Biolegend) and sorted by FACS. After sorting, EGFR positive cells were maintained in RPMI containing 10% FBS, 1% penicillin/streptomycin, and 1 ng/ml EGF to support cell viability. […] Shortly, cells were plated in 384-well plates (Greiner Bio-One) at 2000-3000 cells per well in technical triplicate. Seven different concentrations of TKIs or DMSO vehicle were added to reach a final volume of 40 μL per well. After 72 hours, 11 μL of Cell Titer Glo (Promega) was added to each well. Plates were incubated for a minimum of 10 minutes, and bioluminescence was determined using a FLUOstar OPTIMA plate reader (BMG LABTECH). Raw bioluminescence values were normalized to DMSO control treated cells, and values were plotted in GraphPad Prism. […] Drug screens were performed in technical triplicate on each plate and either duplicate or triplicate biological replicates. […] Statistical differences between groups were determined by ANOVA as described in the figure legends.

EGFR Ex19del T790M C797S = molecular target: T20, EGFR Ex19del T790M C797S (Homo sapiens, UniProt P00533, C797S/DEL746-750/T790M); details: T790M-like-3R, 72 hours
T20 construct: expressed in transfected cells; host or cells: Ba/F3
Experimental: as §8, §2, §9

EGFR E709K G719S = molecular target: T21, EGFR E709K G719S (Homo sapiens, UniProt P00533, E709K/G719S); details: PACC; E709K G719S; Ba/F3; 72 hours
T21 construct: expressed in transfected cells; host or cells: Ba/F3
Experimental: (§10) Data represent the ratio of the IC50 value for a given TKI for cells with a PACC EGFR mutation to the IC50 value for cells with wildtype EGFR.
as §2, §7

EGFR E709A G719S = molecular target: T22, EGFR E709A G719S (Homo sapiens, UniProt P00533, E709A/G719S); details: PACC; E709A G719S; Ba/F3; 72 hours
T22 construct: expressed in transfected cells; host or cells: Ba/F3
Experimental: as §10, §2, §7

EGFR E709A = molecular target: T23, EGFR E709A (Homo sapiens, UniProt P00533, E709A); details: PACC; E709A; Ba/F3; 72 hours
T23 construct: expressed in transfected cells; host or cells: Ba/F3

EGFR V774M = molecular target: T24, EGFR V774M (Homo sapiens, UniProt P00533, V774M); details: PACC; V774M; Ba/F3; 72 hours
T24 construct: host or cells: Ba/F3
Experimental: as §10, §2, §7

EGFR L858R L718Q = molecular target: T25, EGFR L858R L718Q (Homo sapiens, UniProt P00533, L718Q/L858R); details: PACC; L858R L718Q; Ba/F3; 72 hours
T25 construct: host or cells: Ba/F3

EGFR Ex19del G796S = molecular target: T26, EGFR Ex19del G796S (Homo sapiens, UniProt P00533, DEL746-750/G796S); details: PACC; Ex19del G796S; Ba/F3; 72 hours
T26 construct: expressed in transfected cells; host or cells: Ba/F3
Experimental: as §10, §2, §7

EGFR Ex19del L718Q = molecular target: T27, EGFR Ex19del L718Q (Homo sapiens, UniProt P00533, DEL746-750/L718Q); details: PACC; Ex19del L718Q; Ba/F3; 72 hours
T27 construct: expressed in transfected cells; host or cells: Ba/F3

ratio of IC50 for cells with mutant EGFR to IC50 for cells with wildtype EGFR (Mut/WT) (EGFR L833F): 0.1249
ratio of IC50 for cells with mutant EGFR to IC50 for cells with wildtype EGFR (Mut/WT) (EGFR L858R S784F): 0.01546
ratio of IC50 for cells with mutant EGFR to IC50 for cells with wildtype EGFR (Mut/WT) (EGFR S720P): 0.01834
ratio of IC50 for cells with mutant EGFR to IC50 for cells with wildtype EGFR (Mut/WT) (EGFR A763insFQEA): 0.02225
ratio of IC50 for cells with mutant EGFR to IC50 for cells with wildtype EGFR (Mut/WT) (EGFR D761N): 0.6757
ratio of IC50 for cells with mutant EGFR to IC50 for cells with wildtype EGFR (Mut/WT) (EGFR S768dupSVD): 3.075
ratio of IC50 for cells with mutant EGFR to IC50 for cells with wildtype EGFR (Mut/WT) (EGFR H773insNPH): 1.561
ratio of IC50 for cells with mutant EGFR to IC50 for cells with wildtype EGFR (Mut/WT) (EGFR N771dupN): 1.567
ratio of IC50 for cells with mutant EGFR to IC50 for cells with wildtype EGFR (Mut/WT) (EGFR N771dupN G724S): 1.258
ratio of IC50 for cells with mutant EGFR to IC50 for cells with wildtype EGFR (Mut/WT) [1]: 4.604
ratio of IC50 for cells with mutant EGFR to IC50 for cells with wildtype EGFR (Mut/WT) (EGFR T790M): 21.82
ratio of IC50 for cells with mutant EGFR to IC50 for cells with wildtype EGFR (Mut/WT) (EGFR Ex19del T790M): 12.68
ratio of IC50 for cells with mutant EGFR to IC50 for cells with wildtype EGFR (Mut/WT) (EGFR G719A T790M): 9.625
ratio of IC50 for cells with mutant EGFR to IC50 for cells with wildtype EGFR (Mut/WT) (EGFR G719S T790M): 8.021
ratio of IC50 for cells with mutant EGFR to IC50 for cells with wildtype EGFR (Mut/WT) (EGFR Ex19del/T790M/G724S): 4.645
ratio of IC50 for cells with mutant EGFR to IC50 for cells with wildtype EGFR (Mut/WT) (EGFR L858R T790M L792H): 9.625
ratio of IC50 for cells with mutant EGFR to IC50 for cells with wildtype EGFR (Mut/WT) (EGFR Ex19del T790M L718V): 4.812
ratio of IC50 for cells with mutant EGFR to IC50 for cells with wildtype EGFR (Mut/WT) (EGFR L858R/T790M/L718Q): 4.812
ratio of IC50 for cells with mutant EGFR to IC50 for cells with wildtype EGFR (Mut/WT) (EGFR Ex19del/T790M/L792H): 9.625
ratio of IC50 for cells with mutant EGFR to IC50 for cells with wildtype EGFR (Mut/WT) (EGFR Ex19del T790M C797S): 9.625
ratio of IC50 for cells with mutant EGFR to IC50 for cells with wildtype EGFR (Mut/WT) (EGFR E709K G719S): 0.3636
ratio of IC50 for cells with mutant EGFR to IC50 for cells with wildtype EGFR (Mut/WT) (EGFR E709A G719S): 0.2131
ratio of IC50 for cells with mutant EGFR to IC50 for cells with wildtype EGFR (Mut/WT) (EGFR E709A): 0.1241
ratio of IC50 for cells with mutant EGFR to IC50 for cells with wildtype EGFR (Mut/WT) (EGFR V774M): 0.3139
ratio of IC50 for cells with mutant EGFR to IC50 for cells with wildtype EGFR (Mut/WT) (EGFR L858R L718Q): 0.3765
ratio of IC50 for cells with mutant EGFR to IC50 for cells with wildtype EGFR (Mut/WT) (EGFR Ex19del G796S): 4.084
ratio of IC50 for cells with mutant EGFR to IC50 for cells with wildtype EGFR (Mut/WT) (EGFR Ex19del L718Q): 4.812
Structure (SMILES): COc1cc2ncnc(Nc3cccc(Cl)c3F)c2cc1OC(=O)N1CCN(C)C[C@H]1C [AZD3759]
